# Test results: US20230136218A1, “METHODS AND COMPOSITIONS FOR TREATING ACUTE MYELOID LEUKEMIA” (President and Fellows of Harvard College, priority 2019, published 2023)
# Entries after “also recorded” stand apart in the source; their conditions may differ.
# Experiments:
# MLL-AF9 AML cells [1] = assay: Colony forming unit assay of AML cells obtained from treated mice; type: in vivo, mouse
# Method: Recipient male mice (age 8-10 weeks) were injected intravenously (retro-orbital) with 1 million leukemia cells in a volume of 100 μl of saline. Disease progression was tracked intravitally using bioluminescence imaging. Mice were anaesthetized using isoflurane, injected with luciferin (150 μl of a 15 mg/ml solution in PBS), and imaged on an IVIS 200 Spectrum In Vivo Imaging System (PerkinElmer). When indicated, mice were treated with iCT (cytarabine, 100 mg/kg, once daily for 5 days and doxorubicin, 3 mg/kg, once daily for the first 3 days) or vehicle (saline) delivered via I.P. injection. To inhibit glutamine metabolism, mice were treated with DON (0.3 mg/kg, once daily) or vehicle (saline) delivered via I.P. injection. To inhibit GLS, mice were treated with a GLS inhibitor (150 mg/kg, twice daily) or vehicle (20% HP-β-cyclodextrin+20% Solutol, 50 mM citrate buffer, pH 3) delivered by oral gavage. To inhibit DHODH, mice were treated with BRQ (50 mg/kg, once daily) or vehicle (70% PBS, 30% poly(ethylene glycol)-400, pH 7.2) delivered via I.P. injection. To inhibit GCL, mice were treated with BSO (twice daily by I.P. injection at 2.23 mg/kg+in the drinking water at 4.45 mg/ml) or vehicle (saline by I.P. injection+untreated drinking water). […] FACS-sorted viable AML cells (GFP^+7-AAD^−) were resuspended in MethoCult GF M3434 (StemCell Technologies) at 1000 cells/ml and plated in SmartDish 6-well plates (StemCell Technologies) at 1 ml/well in duplicate. Cells were cultured in a humidified incubator at 37° C. in ambient air with 5% CO2. After 5 days colonies were counted.
# [2] = test system: glutamine metabolism in MLL-AF9 AML cells; assay: LC-MS-based quantification of metabolites in MLL-AF9 AML cells of treated mice; type: in vivo, mouse; details: one day after the last dose of DON
# Method: (§1) Recipient male mice (age 8-10 weeks) were injected intravenously (retro-orbital) with 1 million leukemia cells in a volume of 100 μl of saline. Disease progression was tracked intravitally using bioluminescence imaging. Mice were anaesthetized using isoflurane, injected with luciferin (150 μl of a 15 mg/ml solution in PBS), and imaged on an IVIS 200 Spectrum In Vivo Imaging System (PerkinElmer). When indicated, mice were treated with iCT (cytarabine, 100 mg/kg, once daily for 5 days and doxorubicin, 3 mg/kg, once daily for the first 3 days) or vehicle (saline) delivered via I.P. injection. To inhibit glutamine metabolism, mice were treated with DON (0.3 mg/kg, once daily) or vehicle (saline) delivered via I.P. injection. To inhibit GLS, mice were treated with a GLS inhibitor (150 mg/kg, twice daily) or vehicle (20% HP-β-cyclodextrin+20% Solutol, 50 mM citrate buffer, pH 3) delivered by oral gavage. To inhibit DHODH, mice were treated with BRQ (50 mg/kg, once daily) or vehicle (70% PBS, 30% poly(ethylene glycol)-400, pH 7.2) delivered via I.P. injection. To inhibit GCL, mice were treated with BSO (twice daily by I.P. injection at 2.23 mg/kg+in the drinking water at 4.45 mg/ml) or vehicle (saline by I.P. injection+untreated drinking water).
# Mice were euthanized by CO2 asphyxiation and femurs and tibias were isolated and cleaned to remove muscle. Bones were then crushed using a mortar and pestle in ice-cold flow buffer (PBS containing 2% FBS), and the obtained cell suspension was passed through a 70 μm cell strainer. Red blood cells were removed by incubating cells for 5 minutes in ACK lysing buffer (Gibco) on ice, cells were washed and resuspended in ice-cold flow buffer containing the viability dye 7-aminoactinomycin D (7-AAD; BD Biosciences). Viable AML cells (GFP^+7-AAD^−) were sorted on a BD FACSAria II (BD Biosciences) with the sample collector cooled to 4° C. Sorted cells were immediately processed.
# FACS-sorted cells or plasma samples were lysed in ice-cold methanol and polar metabolites were extracted using methanol-chloroform phase separation (methanol:water:chloroform in 2:1:2 ratio). Samples were then dried under nitrogen flow, resuspended in 70% acetonitrile in water containing 2.5 μM of an internal standard (^13C-, ^15N-labeled amino acid mix; Cambridge Isotope Laboratories) and run on a ThermoFisher Q-exactive equipped with Zic-pHILIC column (150×2.1 mm, 5 μm; Merck). A volume of 5 μl was injected and the full mass spectrum was obtained in both positive and negative mode (0 to 45 minutes, resolution 70000, AGC target 3e6, mz range 66 to 990). Mobile phase A for chromatography consisted of 20 mM ammonium carbonate, 0.1% ammonium hydroxide, in water and mobile phase B of 97% acetonitrile in water. For untargeted metabolomics, a pooled sample was created from all samples and used for MS/MS runs. For targeted analysis, a standard mix at 1 μM of each compound of interest was prepared and run after the samples to confirm retention times.
# For untargeted metabolomics analysis, data were processed with Compound Discoverer 3.0 (ThermoFisher Scientific) using the mzCloud mass spectral library for compound annotation. […] For targeted metabolomics analysis, data were analyzed with Tracefinder4.1 (ThermoFisher Scientific).
# HoxA9/Meis1 AML cells = assay: AML cell elimination in HoxA9/Meis1 AML-bearing mice; type: in vivo, mouse; details: DON after completion of iCT
# Method: as §1
# MLL-AF9 AML cells [3] = assay: AML burden of MLL-AF9 AML-bearing mice by bioluminescence imaging or flow cytometry; type: in vivo, mouse; details: short term DON after iCT
# Method: as §1, with “To inhibit DHODH, mice were treated with BRQ (50 mg/kg, once daily) or vehicle (70% PBS, 30% poly(ethylene glycol)-400, pH 7.2) delivered via I.P. injection. To inhibit GCL, mice were treated with BSO (twice daily by I.P. injection at 2.23 mg/kg+in the drinking water at 4.45 mg/ml) or vehicle (saline by I.P. injection+untreated drinking water).” left out
# (§2) Cells were suspended in flow buffer and stained for 30 minutes at 4° C. in the dark with antibodies against c-Kit, Sca-1, CD34, CD45, Ter-119, CD31, LepR, CD90, CD105, SLC1A3, SLC38A1 or a lineage cocktail (CD3, Gr-1, CD11b, B220, Ter-119). […] Cell viability was analyzed using Annexin V-APC (BioLegend) and propidium iodide (PI; ThermoFisher Scientific) with Annexin V^−PI^− cells considered as viable cells. The number of viable cells was determined by taking into account the total number of cells per well as measured using a Cellometer (Nexcelom). Mitochondrial membrane potential was measured by Tetramethylrhodamine, ethyl ester (TMRE; ThermoFisher) staining and levels of ROS were measured by CellROX Orange staining. Cells were incubated with 200 nM TMRE or 2.5 μM CellROX Orange in RPMI1640 medium supplemented with 10% FBS, 100 I.U./ml penicillin, 100 μg/ml streptomycin and 2 mM L-glutamine at 37° C. for 30 minutes, washed in flow buffer and analyzed. For all flow cytometry experiments, single color controls were used to set compensations and fluorescence minus one controls were used to set gates. […]
# HoxA9/Meis1 AML = assay: Kaplan-Meier survival of HoxA9/Meis1 AML-bearing mice; type: in vivo, mouse; details: two doses of DON 0.3 mg/kg I.P. after completion of iCT
# From the text: (§3) The MLL-AF9 and HoxA9/Meis1 leukemia models have been described previously (Sykes et al., 2016). Briefly, the MLL-AF9 model was established by crossing MLL-AF9 knockin mice (Corral et al., 1996) with mice expressing GFP under the control of the ubiquitin promoter as well as mice expressing luciferase under the control of the β-actin promoter. The retroviral transduction model of HoxA9/Meis1 leukemia was generated by the infection of bone marrow mononuclear cells with an MSCV-HoxA9-IRES-Meis1 construct (originally designed by Dr. Guy Sauvageau; Kroon et al., 1998). For both models, leukemic bone marrow cells from a terminally ill mouse were harvested and expanded ex vivo in RPMI1640 medium (Lonza) supplemented with 10% fetal bovine serum (FBS; Gibco), 100 I.U./ml penicillin, 100 μg/ml streptomycin, 2 mM L-glutamine (all from Corning), 20 ng/ml recombinant mouse SCF (rmSCF), 10 ng/ml recombinant mouse interleukin 3 (rmIL-3) and […] (all from R&D Systems).
# (§4) Recipient male mice (age 8-10 weeks) were injected intravenously (retro-orbital) with 1 million leukemia cells in a volume of 100 μl of saline. Disease progression was tracked intravitally using bioluminescence imaging. Mice were anaesthetized using isoflurane, injected with luciferin (150 μl of a 15 mg/ml solution in PBS), and imaged on an IVIS 200 Spectrum In Vivo Imaging System (PerkinElmer). […]
# MLL-AF9 AML cells [4] = assay: Apoptotic cells in MLL-AF9 AML cells of treated mice, flow cytometry for active Caspase 3; type: in vivo, mouse; details: combination of iCT and DON (sequential); one day after the last dose of DON
# Method: as §1
# [5] = test system: solid tumors and leukemia; details: Phase I and II clinical trials, cited from earlier work
# MLL-AF9 AML cells [6] = assay: Double-stranded DNA breaks in MLL-AF9 AML cells of treated mice, flow cytometry for gamma-H2AX; type: in vivo, mouse; details: short term DON after iCT; one day after the last dose of DON
# Method: as §4, with “(PerkinElmer). When indicated, mice were treated with iCT (cytarabine, 100 mg/kg, once daily for 5 days and doxorubicin, 3 mg/kg, once daily for the first 3 days) or vehicle (saline) delivered via I.P. injection.” for “(PerkinElmer).”
# as §2, with “staining.” for “staining. Cells were incubated with 200 nM TMRE or 2.5 μM CellROX Orange in RPMI1640 medium supplemented with 10% FBS, 100 I.U./ml penicillin, 100 μg/ml streptomycin and 2 mM L-glutamine at 37° C. for 30 minutes, washed in flow buffer and analyzed. For all flow cytometry experiments, single color controls were used to set compensations and fluorescence minus one controls were used to set gates.”
# [7] = Tolerability of DON in AML-bearing mice; type: in vivo, mouse
# Method: as §1
# MLL-AF9 AML cells [8] = assay: Flow cytometric quantification of CD34 and cKit levels in AML cells obtained from treated mice; type: in vivo, mouse
# Method: as §1
# Cells were suspended in flow buffer and stained for 30 minutes at 4° C. in the dark with antibodies against c-Kit, Sca-1, CD34, CD45, Ter-119, CD31, LepR, CD90, CD105, SLC1A3, SLC38A1 or a lineage cocktail (CD3, Gr-1, CD11b, B220, Ter-119). 7-AAD was included as a viability dye to help identify dead cells. When necessary, cells were stained with a secondary antibody (Alexa Fluor 546-conjugated anti-rabbit IgG) or APC-eFluor 780-conjugated streptavidin (eBioscience) for 15 minutes at 4° C. in the dark. […] Cell viability was analyzed using Annexin V-APC (BioLegend) and propidium iodide (PI; ThermoFisher Scientific) with Annexin V^−PI^− cells considered as viable cells. The number of viable cells was determined by taking into account the total number of cells per well as measured using a Cellometer (Nexcelom). Mitochondrial membrane potential was measured by Tetramethylrhodamine, ethyl ester (TMRE; ThermoFisher) staining and levels of ROS were measured by CellROX Orange staining. Cells were incubated with 200 nM TMRE or 2.5 μM CellROX Orange in RPMI1640 medium supplemented with 10% FBS, 100 I.U./ml penicillin, 100 μg/ml streptomycin and 2 mM L-glutamine at 37° C. for 30 minutes, washed in flow buffer and analyzed. For all flow cytometry experiments, single color controls were used to set compensations and fluorescence minus one controls were used to set gates. All flow cytometry data was collected on a BD LSR II flow cytometer and analyzed using FlowJo software.
# MLL-AF9 AML = assay: Kaplan-Meier survival of MLL-AF9 AML-bearing mice; type: in vivo, mouse
# From the text: as §3, §1
# [9] = agent alone, compared to vehicle-treated mice
# [10] = combination with iCT (sequential), four days after the last dose of iCT
structure (smiles),measurement,setting,value
"[N-]=[N+]=CC(=O)CC[C@H](N)C(=O)O [DON, 6-diazo-5-oxo-L-norleucine]",number of colony-forming units (CFUs),MLL-AF9 AML cells [1]; [9],moderately increased the number of CFUs
same,number of colony-forming units (CFUs),MLL-AF9 AML cells [1]; [10],normalized
same,UMP levels in chemoresistant AML cells,[2]; DON after iCT,prevented the increase of UMP levels
same,glutamate level in AML cells,[2]; DON after iCT,normalizing the increase in glutamate; also recorded: partially reducing the increase in glutamate
same,reduced glutathione (GSH) levels in AML cells,[2]; DON after iCT,effective in suppressing the increase in GSH levels
same,aspartate level in AML cells,[2]; iCT followed by DON,remained high
same,glutamine level in AML cells,[2]; mice treated with iCT and/or DON,accumulation of glutamine
same,AML cell elimination,HoxA9/Meis1 AML cells,enhanced AML cell elimination
same,relapse,MLL-AF9 AML cells [3]; bioluminescence imaging,delayed relapse
same,elimination of AML cells (AML burden),MLL-AF9 AML cells [3]; one day after the last dose of DON,improved elimination of AML cells; also recorded: reduced the number of chemoresistant cells
same,survival,HoxA9/Meis1 AML,improved mouse survival
same,percentage of apoptotic cells (active Caspase 3),MLL-AF9 AML cells [4],more apoptotic cells
same,clinical side effects,[5],"dose-dependent side effects including nausea, vomiting and mucositis"
same,clinical efficacy,[5]; single agent,limited efficacy as a single agent
same,double stranded DNA breaks in residual cells (gamma-H2AX),MLL-AF9 AML cells [6],increased double stranded DNA breaks
same,tolerability,[7]; DON every other day after iCT,acceptable
same,tolerability / toxicity,[7]; daily DON injections after iCT,toxicity issues; also recorded: did not tolerate
same,percentage of CD34+cKit+ cells,MLL-AF9 AML cells [8]; [9],no effect on marker expression
same,percentage of CD34+cKit+ cells,MLL-AF9 AML cells [8]; [10],normalized
same,survival,MLL-AF9 AML; DON 0.3 mg/kg I.P. given for 5 days at the same time as iCT (concomitant),no difference in survival
same,survival,"MLL-AF9 AML; DON 0.3 mg/kg I.P. started after completion of iCT, covering the moment of maximal response, daily for a short time or continuously every other day",clear survival benefit; also recorded: improved survival
same,"survival, DON every other day compared to short term DON treatment",MLL-AF9 AML; DON every other day following iCT,further improved mouse survival
"CCCCS(=N)(=O)CCC(N)C(=O)O [BSO, L-buthionine-sulfoximine]",survival,"MLL-AF9 AML; BSO (2.23 mg/kg B.I.D. I.P. + 4.45 mg/ml in drinking water) for 4 days following iCT, compared to iCT alone",no difference in survival compared to iCT alone
